Assay [1] concerns BV-2. The assay is described as follows: Antiinflammatory activity in C57BL/6 mouse microglial BV-2 cells assessed as reduction in LPS induced IL-1 beta mRNA expression level at 30 umol/L pretreated for 3 hrs followed by LPS stimulation and measured after 24 hrs by qRT-PCR analysis. In kind it is functional, cell-based. The note with it: dose 30.0 µmol/L, time 27.0 hrs. On the technique in general: Real-time PCR tracks product formation cycle by cycle.

In assay [2] the test system is BV-2. Put plainly: Antiinflammatory activity in C57BL/6 mouse microglial BV-2 cells assessed as reduction in LPS-induced TNF-alpha release at 30 umol/L pretreated for 3 hrs followed by LPS stimulation and measured after 6 hrs by AlphaLISA assay. In kind it is functional. Particulars: C57BL/6, BV-2, 9 h, dose 30 µmol/L.
The subject of assay [3] is BV-2. The assay is described as follows: Antiinflammatory activity in C57BL/6 mouse microglial BV-2 cells assessed as reduction in LPS-induced TNF-alpha release at 30 umol/L pretreated for 3 hrs followed by LPS stimulation and measured after 24 hrs by AlphaLISA assay. Format: functional. The note with it: C57BL/6, BV-2, 27 h, dose 30 µmol/L. A general note: In Alpha technology, singlet oxygen from a donor bead excites a nearby acceptor bead.

The test system of assay [4] is BV-2. Put plainly: Antiinflammatory activity in C57BL/6 mouse microglial BV-2 cells assessed as reduction in LPS-induced IL-6 release at 30 umol/L pretreated for 3 hrs followed by LPS stimulation and measured after 6 hrs by AlphaLISA assay. Format: functional. Particulars: C57BL/6, BV-2, 9 h, dose 30 µmol/L.
For assay [5], the system named is BV-2. Put plainly: Antiinflammatory activity in C57BL/6 mouse microglial BV-2 cells assessed as reduction in LPS induced IL-6 mRNA expression level at 30 umol/L pretreated for 3 hrs followed by LPS stimulation and measured after 24 hrs by qRT-PCR analysis. Format: functional, cell-based. Particulars: dose 30.0 µmol/L, time 27.0 hrs.
Assay [6] relates to BV-2. Put plainly: Antiinflammatory activity in C57BL/6 mouse microglial BV-2 cells assessed as reduction in LPS-induced IL-6 release at 30 umol/L pretreated for 3 hrs followed by LPS stimulation and measured after 24 hrs by AlphaLISA assay. Format: functional. Particulars: C57BL/6, BV-2, 27 h, dose 30 µmol/L.
Assay [7] has as its system BV-2. Put plainly: Antiinflammatory activity against LPS-stimulated C57BL/6 mouse microglial BV-2 cells assessed as reduction in cellular content of TNF-alpha level at 30 umol/L pretreated for 3 hrs followed by LPS stimulation and measured after 6 hrs by AlphaLISA assay. Format: functional, cell-based. The note with it: dose 30.0 µmol/L, time 9.0 hrs.
For assay [8], the system named is BV-2. The assay is described as follows: Antiinflammatory activity against LPS-stimulated C57BL/6 mouse microglial BV-2 cells assessed as reduction in cellular content of IL-6 level at 30 umol/L pretreated for 3 hrs followed by LPS stimulation and measured after 6 hrs by AlphaLISA assay. Format: functional, cell-based. The note with it: dose 30.0 µmol/L, time 9.0 hrs.

Assay [9] relates to BV-2. Put plainly: Antiinflammatory activity against LPS-stimulated C57BL/6 mouse microglial BV-2 cells assessed as reduction in cellular content of TNF-alpha level at 30 umol/L pretreated for 3 hrs followed by LPS stimulation and measured after 24 hrs by AlphaLISA assay. Format: functional, cell-based. Particulars: dose 30.0 µmol/L, time 27.0 hrs.
The subject of assay [10] is BV-2. The assay is described as follows: Antiinflammatory activity against LPS-stimulated C57BL/6 mouse microglial BV-2 cells assessed as reduction in cellular content of IL-6 level at 30 umol/L pretreated for 3 hrs followed by LPS stimulation and measured after 24 hrs by AlphaLISA assay. Format: functional, cell-based. The note with it: dose 30.0 µmol/L, time 27.0 hrs.

Assay [11] concerns BV-2. Put plainly: Antiinflammatory activity against LPS-stimulated C57BL/6 mouse microglial BV-2 cells assessed as reduction in cellular content of IL-1 beta level at 30 umol/L pretreated for 3 hrs followed by LPS stimulation and measured after 24 hrs by AlphaLISA assay. Format: functional, cell-based. Particulars: dose 30.0 µmol/L, time 27.0 hrs.

Calls of active or inactive are those of the source. The rule behind the calls is not given here.

The inhibition is the relative decrease from the control value, in per cent. Take `CCC(O)/C=C/C=C\C=C\[C@H](O)CCCCCCCC(=O)O` (mixture of isomers): the result in the assay on BV-2 [1], in the assay on BV-2 [5], in the assay with BV-2 [7], in the assay with BV-2 [8], with BV-2 [9] and with BV-2 [10] was Active. The result in the assay on BV-2 [11] was Active. The inhibition at 30 µM in the assay on BV-2 [2] was 14.1%; with BV-2 [3] it was 22.7%; in the assay with BV-2 [4] it was 20.8%; with BV-2 [6] it was 30.5%.

The record behind these values is ChEMBL document CHEMBL5131489, “Linotrins: Omega-3 oxylipins featuring an E,Z,E conjugated triene motif are present in the plant kingdom and alleviate inflammation in LPS-challenged microglial cells” (2022).
